In PubChem BioAssay AID179 (DTP/NCI, 2004):
Active and inactive are the calls of the source.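 The calls were made as follows: active = compounds giving half or more protection of infected cells from virus-caused growth loss, again on retest; inactive = the rest.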

Test system: CEM cells HIV-1 protection, formazan growth assay
Assay: NCI AIDS Antiviral Assay
Details: for IC50: measured here: growth of uninfected CEM cells
Summary of the method: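 Human CEM cells, uninfected and HIV-1-infected, received five drug concentrations, and growth was read by soluble formazan assay. Compounds giving at least 50% protection were retested; reproducible 100% protection defined confirmed active.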

CC(=O)OCC1OC(n2c(-c3ccc(C)cc3)cc(-c3ccco3)c(C#N)c2=O)C(OC(C)=O)C(OC(C)=O)C1OC(C)=O (centres undefined)
EC50: > 16.2 µM
IC50: > 16.2 µM

Cc1cc(S(=O)(=O)Nc2nnc3cc(C(F)(F)F)cc(C)n23)c(S)cc1Cl
EC50: 50.1 µM
IC50: 132 µM

[N-]=[N+]=Nc1c(Cc2ccccc2)c(Cl)nc2ccccc12
EC50: > 200 µM
IC50: 19.1 µM

O=P(O)(OCCc1ccccc1)Oc1ccccc1O
EC50: > 200 µM
IC50: > 200 µM

C=CC[C@]1(C(C)C(OC(C)=O)c2ccc3c(c2)OCO3)C[C@@H](OC)C=CC1=O (some centres undefined)
EC50: > 20 µM
IC50: 1.48 µM

CCOC(CCCN1CCC2(CC1)C(=O)N(C)CN2c1ccccc1)(OCC)c1ccc(F)cc1
EC50: > 200 µM
IC50: 15.1 µM

O=CC12C3CCC1C2C(=O)C3 (centres undefined)
outcome: inactive
IC50: > 200 µM

CCC1CCC2CCCC(C)N12 (centres undefined)
EC50: > 1480 µM
IC50: > 1480 µM

c1c[nH]c(Cc2ncc(Cc3cnc[nH]3)[nH]2)n1
outcome: inactive

COc1cc(C2c3cc4c(cc3OC(NNS(=O)(=O)c3ccc(C)cc3)C2C)OCO4)cc(OC)c1O (centres undefined)
outcome: inactive

CSc1nc2c(nc(N)n2C2OCC(O)C(O)C2O)c(=O)n1C (centres undefined)
outcome: inactive

O=C(/C=C\c1cccc2ccccc12)c1ccc(Cl)cc1Cl
EC50: > 1.66 µM
IC50: > 1.66 µM

O=C1/C(=C\c2ccc(Br)cc2)CCCc2ccccc21
EC50: > 200 µM
IC50: 22.4 µM

O=C1C(N=Nc2ccc([N+](=O)[O-])cc2)Sc2nc3ccccc3n21 (centres undefined)
EC50: > 200 µM
IC50: 178 µM

CSc1nc2[nH]c(=O)n(OS(=O)(=O)c3ccccc3)c(=O)c2n1Cc1ccccc1
EC50: > 200 µM
IC50: 105 µM

CC(=O)NNC=N/C(C#N)=C(\N)C#N
EC50: > 200 µM
IC50: > 200 µM

C[C@]12CCC3[C@@H](CC[C@@H]4c5nonc5CC[C@]34C)C1CCC2=O (some centres undefined)
EC50: > 57.5 µM
IC50: > 57.5 µM

CC(=O)N1N=C(c2ccc3ccccc3c2O)CC1c1ccc(Cl)cc1Cl (centres undefined)
EC50: > 200 µM
IC50: 22.9 µM

CCOC(=O)NC(=O)c1cn(CCN2CCN(C(=O)CCCCCCCCCCNc3ncnc4nc[nH]c34)CC2)c(=O)[nH]c1=O
outcome: inactive

C=CC[C@@H]1C(=O)[C@@]2(O[Si](C(C)C)(C(C)C)C(C)C)CC[C@@H]1C[C@H]2NC(=O)OCC(Cl)(Cl)Cl
EC50: > 200 µM
IC50: > 200 µM

CC(=O)C1=CN=C2C(=O)N(c3ccccc3)N(C)C12C (centres undefined)
EC50: > 200 µM
IC50: > 200 µM

S=c1sc2c(s1)SCCS2
EC50: > 200 µM
IC50: 155 µM

N#CCCN(CCC#N)c1ccc(/C=C2\N=C(CN3C(=O)c4ccccc4C3=O)OC2=O)cc1
EC50: > 79.4 µM
IC50: > 79.4 µM

C/C(=N\N=C(N)N)c1sc(-c2nc(C)c(/C(C)=N/N=C(N)N)s2)nc1C
EC50: > 126 µM
IC50: > 126 µM

Cc1cccc2c1Oc1cc(Cl)ccc1C2NC(=O)CCN1CCOCC1 (centres undefined)
EC50: > 200 µM
IC50: > 200 µM

Cc1[nH]c2nccn2c(=O)c1CCCl
EC50: > 200 µM
IC50: 11.5 µM

O=C(Cc1ccccc1)NC(C(=O)c1ccccc1)c1ccccc1 (centres undefined)
EC50: > 79.4 µM
IC50: > 79.4 µM

CC1C(O)=C(O)c2ccccc2N1O (centres undefined)
EC50: > 490 µM
IC50: 87.1 µM

COC1N(C2C=CC(CO)O2)C(=O)NC(=O)C1(C)Br (centres undefined)
EC50: 100 µM
IC50: 129 µM

CCOC(=O)c1cnn2c(SC)ncnc12
EC50: > 282 µM
IC50: 67.6 µM

CC(=O)N1C(=O)C(=O)c2cc(Cl)ccc21
outcome: inactive

O=C(CCCC[n+]1ccccc1)Sc1ccccc1C(=O)Nc1ccc(S(=O)(=O)Nc2cnc3ccccc3n2)cc1
EC50: 12.3 µM
IC50: 19.1 µM

CC(C)c1ccccc1SCc1cc(=O)cc(CSc2ccccc2C(C)C)o1
EC50: > 200 µM
IC50: 11.7 µM

O=C1C2C(C(=O)N1OS(=O)(=O)c1ccccc1)N(Cc1ccccc1)C(=O)N2Cc1ccccc1 (centres undefined)
EC50: > 7.59 µM
IC50: > 7.59 µM

Cc1ccc(S(=O)(=O)NCCSCCSCCNS(=O)(=O)c2ccc(C)cc2)cc1
EC50: > 38.9 µM
IC50: > 38.9 µM

COC(=O)c1cnn2c1n[n+]([O-])c1ccccc12
EC50: > 200 µM
IC50: > 200 µM

CCOC(=O)C(NC(=O)CC)(C(F)(F)F)P(=O)(OCC)OCC (centres undefined)
EC50: > 200 µM
IC50: > 200 µM

CC(=O)C(=[N+]=[N-])C(=O)OC(C)(C)C#N
EC50: > 200 µM
IC50: > 200 µM

CC(C)(C)c1cc(C(O)(C(F)(F)F)C(F)(F)F)c2c(c1)C(C(F)(F)F)(C(F)(F)F)OC(c1ccccc1)(C(C)(C)C)N2 (centres undefined)
outcome: inactive

NC(CSS(=O)(=O)O)=NCCc1c[nH]c(=S)[nH]1
EC50: > 200 µM
IC50: 34.7 µM

O=C1NC(=O)/C(=C/c2ccc(F)cc2)N1
EC50: > 200 µM
IC50: 191 µM

c1ccc(COCC23CCN(Cc4ccccc4)C(CC(OCc4ccccc4)C2)S3)cc1 (centres undefined)
EC50: > 200 µM
IC50: 45.7 µM

COc1ccc(/C=C/C(=O)c2nc3ccccc3n2C)cc1
EC50: > 200 µM
IC50: 26.9 µM

COC(=O)C1C2CCCN2OC1(C)CO (centres undefined)
EC50: > 200 µM
IC50: > 200 µM

C=C(C)CNC(=S)N(N)c1ccc(OC)cc1
EC50: > 200 µM
IC50: 69.2 µM

COc1ccc2oc(=N)c(C(N)=S)cc2c1
EC50: > 200 µM
IC50: 26.9 µM

COc1ccc2nc3ccc(OC)cc3c(S(=O)(=O)Cc3ccc([N+](=O)[O-])cc3)c2c1
EC50: > 200 µM
IC50: > 200 µM

CCCN1CN(C(C(=O)N[C@@H]2C(=O)N3C2SC(C)(C)C3C(=O)O)c2ccc(O)cc2)CSC1=S (some centres undefined)
EC50: > 479 µM
IC50: 145 µM

NCCNCCN1C(=O)c2cccc3cccc(c23)C1=O
EC50: > 200 µM
IC50: 7.59 µM

COc1cc(C)c(C(=O)/C=C/c2cc(OC)c(O)c(OC)c2)cc1O
EC50: > 275 µM
IC50: 12.9 µM

CCN1CCC(O)(/C=C/c2ccc(Cl)cc2)C(C(=O)/C=C/c2ccc(Cl)cc2)C1 (centres undefined)
EC50: > 21.4 µM
IC50: > 21.4 µM

O=C(NC(=O)c1ccccc1[N+](=O)[O-])Nc1ccc(Oc2ncc(Cl)cn2)c([N+](=O)[O-])c1
outcome: inactive

c1cc2ccc1C1NCCCN1CCN1CCCNC1c1ccc(cc1)C1NCCCN1CCN1CCCNC21 (centres undefined)
EC50: > 13.2 µM
IC50: 9.33 µM

[N-]=[N+]=C1C(=O)C2CC3CC1CC2C3 (centres undefined)
EC50: > 204 µM
IC50: > 204 µM

O=C(O)CNC(=O)C(CSC(=O)OCC1c2ccccc2-c2ccccc21)NC(=O)CCC(NC(=O)OCC1c2ccccc2-c2ccccc21)C(=O)O (centres undefined)
EC50: > 200 µM
IC50: 107 µM

COC(=O)c1sc(=NC(=S)N2CCCCC2)sc1C(=O)OC
outcome: inactive

C1=Cc2ccccc2C(c2ccccc2)=NC1
EC50: > 229 µM
IC50: 145 µM

O=c1cc(CO)oc2c3c(cc(O)c12)OCC(COC1OC(CO)C(O)C(O)C1O)=CC3 (centres undefined)
EC50: > 550 µM
IC50: 288 µM

COC1OC(COCc2ccc(Cl)cc2)C(OCc2ccc(Cl)cc2)C1O (centres undefined)
outcome: inactive

C[C@H](C/C=C/C(C)(C)O)[C@H]1CC[C@@]2(C)[C@@H]3CC[C@H]4C(C)(C)[C@@H](O)CC[C@@]45C[C@@]35CC[C@]12C
EC50: > 200 µM
IC50: 4.68 µM

O=c1/c(=N\O)c(=O)c2ccccc2/c1=N\O
EC50: > 200 µM
IC50: 10 µM

CCOC(=O)C(NC(=O)c1ccccc1)(Nc1cc(C)on1)C(F)(F)F (centres undefined)
EC50: > 200 µM
IC50: > 200 µM

CNC(=O)N(C)C(=O)c1ccccc1C(=O)N(C)C(=O)NC
EC50: > 200 µM
IC50: > 200 µM

CC(C)(C)c1cc(C(C)(C)C)c(P=C(Cl)Cl)c(C(C)(C)C)c1 (centres undefined)
EC50: > 100 µM
IC50: > 100 µM

C=C1C(=O)O[C@@H]2C=C(C)C3=CC(=O)[C@](C)(C[C@H](OC(=O)/C(C)=C\C)[C@@H]12)O3
EC50: > 5.37 µM
IC50: 0.224 µM

Cc1ccc(N=Nc2c(C)nn(C(=O)CC(=O)Nc3ccccc3)c2C)cc1C
EC50: > 200 µM
IC50: > 200 µM

O=c1oc2ccccc2c(O)c1/C=N/C(=S)NCCc1ccccc1
EC50: > 200 µM
IC50: > 200 µM

Cc1cc2c(c(=O)o1)C(=O)CC(C)O2 (centres undefined)
EC50: > 776 µM
IC50: 117 µM

N#C/C(=C\c1cc(Br)cc(Br)c1O)c1ccc([N+](=O)[O-])cc1
EC50: > 100 µM
IC50: 13.5 µM

CCN(CC)CCOc1ccc2c(c1O)C(=O)c1ccccc1C2=O
EC50: > 74.1 µM
IC50: 3.98 µM

N#C/C(=C/NC(=S)c1ccncc1)C(N)=O
EC50: > 200 µM
IC50: > 200 µM

COc1ccc(-c2oc(=O)c3ccccc3c2-c2ccccc2)cc1
EC50: > 15.8 µM
IC50: > 15.8 µM

CCOP(=O)(OCC)/C(C#N)=C/c1c[nH]c2ccccc12
EC50: > 200 µM
IC50: 178 µM

S=C1NC(/C=C/c2ccccc2)N2C(=S)NC(/C=C\c3ccccc3)N12 (centres undefined)
outcome: inactive

N[C@H]1c2c(Br)sc(Br)c2C(=O)[C@H]1O
EC50: > 200 µM
IC50: 7.59 µM

CN(C)CCOc1ccc(-c2c(Oc3ccccc3)c(=O)oc3ccccc23)cc1
EC50: > 200 µM
IC50: 8.71 µM

O=C1[C@H]2C(c3ccccc3)=NN(C(=O)c3ccccc3)[C@H]2C(=O)N1c1ccccc1
outcome: inactive

ClCC[N+]12CC[N+](CCCl)(CC1)C2
outcome: inactive

O=C(Nc1ccc(C2=NCCN2)c(O)c1)c1ccc(C(=O)Nc2ccc(C3=NCCN3)c(O)c2)cc1
EC50: 95.5 µM
IC50: > 200 µM

O=C1c2ccc(S(=O)(=O)O)c(O)c2C(=O)c2ccc(S(=O)(=O)O)c(O)c21
outcome: inactive

O=C1C(O)=C(c2ccccc2)S(=O)(=O)C1c1ccccc1 (centres undefined)
EC50: > 200 µM
IC50: 79.4 µM

CCCOCN1COCN=C1NC#N
EC50: > 447 µM
IC50: 417 µM

Cc1n[n+](CC(=O)c2ccccc2)c2sc(N)nn12
EC50: > 200 µM
IC50: 132 µM

O=C1c2cccnc2S(=O)(=O)N1c1ccc(Br)cc1
EC50: > 200 µM
IC50: 74.1 µM

CCN(CC)CC(O)CN(CC(=O)Nc1c(C)cccc1C)CC(C)C (centres undefined)
EC50: > 200 µM
IC50: > 200 µM

COC(=O)c1c(C(=O)OC)c(C(=O)OC)c(C(=O)OC)c1C(=O)OC
outcome: inactive

CCOC(=O)c1nc(SC)sc1NC(=O)c1ccc(OC)cc1
EC50: 162 µM
IC50: > 200 µM

CC[C@@]1(O)C(=O)OCc2c1cc1n(c2=O)Cc2cc3cc4c(cc3nc2-1)OCO4
EC50: > 0.002 µM
IC50: 0.000331 µM

Cc1ccc(S(=O)(=O)NNS(C)(=O)=O)cc1
EC50: > 955 µM
IC50: 646 µM
